Measured values published in ChEMBL document CHEMBL1201862, “PubChem BioAssay data set” (2004).
Blank lines part the entries; values can stand above or below the compound they belong to. The source made the active and inactive calls.

Experiments:
Bcl-2-related protein A1 [1] = biological target: T1, Bcl-2-related protein A1 (Mus musculus, UniProt Q07440); assay: small-molecule antagonists of Bfl-1/BH3 interaction – biochemical, TR-FRET, mouse Bfl-1, confirmation (AID 621);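 note: TR-FRET binding of GST-Bfl-1 to FITC-labelled Bid peptide via terbium antibody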
T1 sequence (Q07440 whole entry): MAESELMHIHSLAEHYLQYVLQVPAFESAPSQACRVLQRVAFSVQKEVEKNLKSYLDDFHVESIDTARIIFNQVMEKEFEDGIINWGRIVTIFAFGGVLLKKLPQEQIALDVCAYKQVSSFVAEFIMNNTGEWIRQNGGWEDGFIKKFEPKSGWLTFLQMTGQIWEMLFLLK

[2] = biological target: Glyceraldehyde-3-phosphate dehydrogenase (Homo sapiens, UniProt P04406)
Bcl-2-related protein A1 [3] = biological target: T1, Bcl-2-related protein A1; assay: Bfl-1 binding inhibitors, SAR follow-up, biochemical, fluorescence polarization (AID 1070)
[4] = biological target: G-protein coupled receptor 183 (Homo sapiens, UniProt P32249); assay: SAR confirmation of small molecule antagonists of the EBI2 receptor via a luminescent beta-arrestin assa.; assay type: functional
G-protein coupled receptor 183, sequence (P32249 whole entry): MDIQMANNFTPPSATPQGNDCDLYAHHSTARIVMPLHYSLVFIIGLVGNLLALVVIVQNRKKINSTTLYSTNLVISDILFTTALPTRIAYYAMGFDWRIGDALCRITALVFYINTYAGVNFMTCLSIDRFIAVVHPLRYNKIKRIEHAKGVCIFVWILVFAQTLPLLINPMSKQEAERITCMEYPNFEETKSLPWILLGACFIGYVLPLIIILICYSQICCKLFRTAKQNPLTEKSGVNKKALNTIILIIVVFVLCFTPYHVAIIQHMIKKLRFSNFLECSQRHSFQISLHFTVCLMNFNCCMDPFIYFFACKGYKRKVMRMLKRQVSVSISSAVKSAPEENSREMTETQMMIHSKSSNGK

[5] = biological target: T2, Voltage-gated inwardly rectifying potassium channel KCNH2 (Homo sapiens, UniProt Q12809); assay: concentration-dependent hERG rescue from blockers – cell-based, thallium flux, dose response (AID 2121); assay type: ADME
T2 sequence (Q12809 whole entry): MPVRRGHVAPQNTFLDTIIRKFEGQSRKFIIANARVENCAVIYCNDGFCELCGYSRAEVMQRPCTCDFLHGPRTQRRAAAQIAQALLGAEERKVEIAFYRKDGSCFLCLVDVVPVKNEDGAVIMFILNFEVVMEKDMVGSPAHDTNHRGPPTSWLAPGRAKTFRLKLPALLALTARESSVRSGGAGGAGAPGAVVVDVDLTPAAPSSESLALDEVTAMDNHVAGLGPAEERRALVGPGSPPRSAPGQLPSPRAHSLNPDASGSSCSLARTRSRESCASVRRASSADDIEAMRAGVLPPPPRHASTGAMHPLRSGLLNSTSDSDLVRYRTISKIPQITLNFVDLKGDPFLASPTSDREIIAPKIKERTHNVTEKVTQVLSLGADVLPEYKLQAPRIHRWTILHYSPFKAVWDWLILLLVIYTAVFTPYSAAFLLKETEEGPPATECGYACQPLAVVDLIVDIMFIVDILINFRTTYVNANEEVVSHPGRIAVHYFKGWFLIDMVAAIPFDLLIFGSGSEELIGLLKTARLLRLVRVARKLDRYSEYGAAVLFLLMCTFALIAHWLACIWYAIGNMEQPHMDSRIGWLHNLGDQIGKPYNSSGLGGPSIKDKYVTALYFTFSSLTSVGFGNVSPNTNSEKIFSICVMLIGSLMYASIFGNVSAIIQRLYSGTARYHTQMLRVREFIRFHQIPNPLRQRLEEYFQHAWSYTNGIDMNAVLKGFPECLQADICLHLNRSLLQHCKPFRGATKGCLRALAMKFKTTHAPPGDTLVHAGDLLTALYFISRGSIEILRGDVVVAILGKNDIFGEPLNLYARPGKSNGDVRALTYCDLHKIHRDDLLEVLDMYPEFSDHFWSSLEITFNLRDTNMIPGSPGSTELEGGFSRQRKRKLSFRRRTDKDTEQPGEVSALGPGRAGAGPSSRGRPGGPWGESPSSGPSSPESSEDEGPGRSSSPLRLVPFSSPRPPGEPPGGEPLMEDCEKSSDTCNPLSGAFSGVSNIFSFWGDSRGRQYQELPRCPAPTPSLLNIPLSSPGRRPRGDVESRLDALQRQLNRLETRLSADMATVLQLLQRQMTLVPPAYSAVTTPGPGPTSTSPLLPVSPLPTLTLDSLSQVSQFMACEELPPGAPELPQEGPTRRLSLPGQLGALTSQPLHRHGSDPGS

[6] = biological target: T2, Voltage-gated inwardly rectifying potassium channel KCNH2; assay: dose-dependent reversal of dofetilide hERG block – manual patch clamp, HEK293 cells, dose response (AID 2638); assay type: ADME
[7] = biological target: Peroxisome proliferator-activated receptor gamma/Nuclear receptor corepressor 2 (Homo sapiens, UniProt P37231+Q9Y618); assay: Counterscreen for NR2E3 inverse agonists: TR-FRET-based biochemical high throughput dose response assay to identify inverse agonists of the interaction between peroxisome proliferator-activated receptor gamma (PPARg) and nuclear receptor co-repressor 2 (NCOR2).; assay type: functional
Peroxisome proliferator-activated receptor gamma/Nuclear receptor corepressor 2, sequence (P37231 whole entry): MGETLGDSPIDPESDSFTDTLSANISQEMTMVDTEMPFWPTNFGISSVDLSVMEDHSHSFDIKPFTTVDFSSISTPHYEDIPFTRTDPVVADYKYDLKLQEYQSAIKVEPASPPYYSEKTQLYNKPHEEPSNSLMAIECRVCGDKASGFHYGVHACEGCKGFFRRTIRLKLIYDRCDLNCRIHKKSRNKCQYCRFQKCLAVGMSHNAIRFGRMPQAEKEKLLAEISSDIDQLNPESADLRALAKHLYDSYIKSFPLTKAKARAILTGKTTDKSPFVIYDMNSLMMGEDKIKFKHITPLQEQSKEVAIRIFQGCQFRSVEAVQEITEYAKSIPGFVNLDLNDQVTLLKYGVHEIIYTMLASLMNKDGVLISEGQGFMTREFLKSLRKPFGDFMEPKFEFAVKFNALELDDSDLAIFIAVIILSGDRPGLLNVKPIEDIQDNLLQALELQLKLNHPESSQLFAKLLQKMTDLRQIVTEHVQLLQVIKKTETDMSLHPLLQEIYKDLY
Peroxisome proliferator-activated receptor gamma/Nuclear receptor corepressor 2, sequence (Q9Y618 whole entry): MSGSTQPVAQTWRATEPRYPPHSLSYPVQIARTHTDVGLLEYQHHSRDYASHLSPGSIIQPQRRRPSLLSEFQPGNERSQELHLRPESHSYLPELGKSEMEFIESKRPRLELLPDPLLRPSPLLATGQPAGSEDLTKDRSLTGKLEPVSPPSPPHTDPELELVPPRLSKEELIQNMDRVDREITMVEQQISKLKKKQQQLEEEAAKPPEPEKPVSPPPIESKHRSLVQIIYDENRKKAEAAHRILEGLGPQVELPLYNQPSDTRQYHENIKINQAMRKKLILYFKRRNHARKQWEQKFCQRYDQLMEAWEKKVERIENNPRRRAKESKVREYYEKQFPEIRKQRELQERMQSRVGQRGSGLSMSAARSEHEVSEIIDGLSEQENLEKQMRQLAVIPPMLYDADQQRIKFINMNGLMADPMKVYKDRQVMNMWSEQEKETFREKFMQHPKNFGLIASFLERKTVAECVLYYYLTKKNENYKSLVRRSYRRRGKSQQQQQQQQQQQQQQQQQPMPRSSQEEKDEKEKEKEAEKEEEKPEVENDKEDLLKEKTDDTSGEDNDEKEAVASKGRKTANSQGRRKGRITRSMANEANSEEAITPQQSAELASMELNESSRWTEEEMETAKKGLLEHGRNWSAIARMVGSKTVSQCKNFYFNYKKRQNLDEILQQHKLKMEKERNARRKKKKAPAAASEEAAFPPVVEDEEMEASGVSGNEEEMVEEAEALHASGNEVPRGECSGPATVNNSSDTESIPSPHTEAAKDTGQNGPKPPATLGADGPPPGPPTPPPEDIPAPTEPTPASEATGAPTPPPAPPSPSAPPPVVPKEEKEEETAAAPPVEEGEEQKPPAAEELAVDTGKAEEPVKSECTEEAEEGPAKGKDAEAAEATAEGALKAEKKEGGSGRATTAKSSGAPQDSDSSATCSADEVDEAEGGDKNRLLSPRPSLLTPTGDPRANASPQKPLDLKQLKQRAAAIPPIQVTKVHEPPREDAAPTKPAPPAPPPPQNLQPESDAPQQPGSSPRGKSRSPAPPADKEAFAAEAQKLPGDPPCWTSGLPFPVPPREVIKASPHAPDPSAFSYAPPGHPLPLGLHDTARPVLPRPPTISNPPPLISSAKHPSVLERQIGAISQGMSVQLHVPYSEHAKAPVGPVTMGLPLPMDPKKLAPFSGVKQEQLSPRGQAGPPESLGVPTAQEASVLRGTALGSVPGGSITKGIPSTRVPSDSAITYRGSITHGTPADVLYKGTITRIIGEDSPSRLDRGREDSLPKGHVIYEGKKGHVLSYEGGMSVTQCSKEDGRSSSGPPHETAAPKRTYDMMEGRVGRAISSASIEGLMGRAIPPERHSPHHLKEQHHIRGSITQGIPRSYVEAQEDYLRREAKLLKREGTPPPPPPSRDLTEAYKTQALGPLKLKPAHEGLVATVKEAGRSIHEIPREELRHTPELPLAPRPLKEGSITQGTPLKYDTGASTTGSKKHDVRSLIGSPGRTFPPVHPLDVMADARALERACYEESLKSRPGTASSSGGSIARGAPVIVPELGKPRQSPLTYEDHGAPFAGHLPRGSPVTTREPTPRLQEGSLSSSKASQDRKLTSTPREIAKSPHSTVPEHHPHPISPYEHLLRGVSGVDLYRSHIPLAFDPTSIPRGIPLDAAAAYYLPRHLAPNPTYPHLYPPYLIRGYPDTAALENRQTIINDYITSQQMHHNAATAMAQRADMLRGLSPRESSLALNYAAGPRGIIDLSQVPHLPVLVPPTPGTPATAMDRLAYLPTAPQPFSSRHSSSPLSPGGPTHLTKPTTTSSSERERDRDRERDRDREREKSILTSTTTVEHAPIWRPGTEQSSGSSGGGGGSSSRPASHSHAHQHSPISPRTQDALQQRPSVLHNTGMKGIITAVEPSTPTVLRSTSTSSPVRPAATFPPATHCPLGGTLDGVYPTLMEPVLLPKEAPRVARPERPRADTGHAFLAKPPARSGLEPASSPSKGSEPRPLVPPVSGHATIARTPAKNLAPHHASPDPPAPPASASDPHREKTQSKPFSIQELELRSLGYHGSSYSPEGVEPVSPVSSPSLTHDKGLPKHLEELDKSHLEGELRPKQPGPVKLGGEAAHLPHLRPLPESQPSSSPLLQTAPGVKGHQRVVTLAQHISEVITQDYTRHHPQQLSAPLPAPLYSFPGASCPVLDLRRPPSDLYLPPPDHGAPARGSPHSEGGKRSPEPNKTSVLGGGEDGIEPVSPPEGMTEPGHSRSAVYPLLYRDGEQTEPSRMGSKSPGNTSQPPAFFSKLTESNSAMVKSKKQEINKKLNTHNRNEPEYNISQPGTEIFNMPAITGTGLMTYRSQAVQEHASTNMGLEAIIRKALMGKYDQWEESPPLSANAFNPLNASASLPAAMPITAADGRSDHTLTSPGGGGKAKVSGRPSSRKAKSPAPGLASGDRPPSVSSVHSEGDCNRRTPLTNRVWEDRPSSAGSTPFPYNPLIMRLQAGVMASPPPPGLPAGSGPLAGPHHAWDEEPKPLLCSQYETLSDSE

Estrogen receptor = biological target: T3, Estrogen receptor (Homo sapiens, UniProt P03372);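 note: potency for inhibiting coactivator peptide recruitment to the receptor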
T3 sequence (P03372 whole entry): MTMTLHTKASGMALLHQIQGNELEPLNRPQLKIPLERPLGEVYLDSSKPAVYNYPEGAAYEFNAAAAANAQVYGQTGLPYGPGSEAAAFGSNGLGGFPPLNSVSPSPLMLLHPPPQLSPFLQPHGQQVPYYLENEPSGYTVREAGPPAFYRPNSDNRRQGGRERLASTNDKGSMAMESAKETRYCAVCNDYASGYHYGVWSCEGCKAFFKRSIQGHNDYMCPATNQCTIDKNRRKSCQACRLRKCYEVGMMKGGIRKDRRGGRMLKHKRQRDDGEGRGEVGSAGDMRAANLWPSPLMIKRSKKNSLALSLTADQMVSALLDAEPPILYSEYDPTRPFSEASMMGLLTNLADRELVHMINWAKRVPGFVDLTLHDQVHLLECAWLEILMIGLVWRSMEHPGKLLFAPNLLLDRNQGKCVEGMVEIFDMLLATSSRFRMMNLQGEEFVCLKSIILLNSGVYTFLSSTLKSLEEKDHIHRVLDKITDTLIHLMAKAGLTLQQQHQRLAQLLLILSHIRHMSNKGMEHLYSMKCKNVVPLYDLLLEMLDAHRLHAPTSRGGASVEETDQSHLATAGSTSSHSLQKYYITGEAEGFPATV

[8] = biological target: Photoreceptor-specific nuclear receptor (Homo sapiens, UniProt Q9Y5X4); assay: ligands suppressing NR2E3 nuclear receptor activity – biochemical, TR-FRET, dose response (AID 463256); assay type: functional
Photoreceptor-specific nuclear receptor, sequence (Q9Y5X4 whole entry): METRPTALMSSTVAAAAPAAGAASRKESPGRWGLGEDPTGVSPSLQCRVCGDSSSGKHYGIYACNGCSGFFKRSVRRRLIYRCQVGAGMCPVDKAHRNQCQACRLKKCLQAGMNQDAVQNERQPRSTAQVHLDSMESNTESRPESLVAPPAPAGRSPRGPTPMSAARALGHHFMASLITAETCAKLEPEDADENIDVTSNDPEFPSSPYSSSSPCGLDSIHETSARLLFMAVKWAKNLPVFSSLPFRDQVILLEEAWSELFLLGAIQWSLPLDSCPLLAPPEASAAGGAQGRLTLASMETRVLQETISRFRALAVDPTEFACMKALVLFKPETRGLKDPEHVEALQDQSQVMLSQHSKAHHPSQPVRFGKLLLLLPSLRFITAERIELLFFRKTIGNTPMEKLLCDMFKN

Vero = assay: mammalian cell viability reduction – secondary assay, cytotoxicity control for West Nile virus antiviral project, dose response (AID 1650); assay type: functional; conditions: Chlorocebus sabaeus
[9] = biological target: Heat shock protein HSP 90-alpha (Homo sapiens, UniProt P07900); assay: Luminescence-based dose response biochemical high throughput screening assay for inhibitors of the Heat Shock Protein 90 (HSP90). [Related pubchem assays: 1831 (Summary AID.), 1846 (Confirmation screen.), 1789 (Primary screen.)]

IC50 [4]: 0.31 µM (active)
SMILES: O=C(/C=C/c1ccccc1C(F)(F)F)N1CCN(S(=O)(=O)c2ccc(Br)cc2)CC1

IC50 [7]: 1.42 µM (active)
IC50 (Estrogen receptor): > 50 µM (not active)
IC50 [8]: 2.69 µM (active)
SMILES: Fc1ccc(CNc2nc3ccccc3n3cnnc23)cc1

Continued, compound first:

SMILES: O=C1C(Cl)=C(N2CCN(C(c3ccccc3)c3ccc(Cl)cc3)CC2)C(=O)N1c1ccc(Cl)c(Cl)c1 (stereo unspecified)
IC50 (Bcl-2-related protein A1 [1]): > 100 µM (not active)
IC50 [2]: > 100 µM (not active)
IC50 (Bcl-2-related protein A1 [3]): > 100 µM (not active)

SMILES: O=C(O)c1cc(Cl)ccc1Nc1nc2cc(Cl)ccc2o1
EC50 [5]: 11.7 µM (active)
EC50 [6]: 107 µM (not active)

SMILES: Cn1cc([N+](=O)[O-])c(C(=O)Nc2ccn(Cc3c(F)c(F)cc(F)c3F)n2)n1
CC50 (Vero): 20.8 µM (active)

SMILES: Cc1nc(CS(=O)(=O)c2ccc(Cl)cc2)sc1C(=O)O
IC50 [9]: 12.1 µM (not active)
